Reference: patent US20020115640A1, “Farnesyltransferase inhibitors” (priority 2000, published 2002)

Target: T1, farnesyltransferase (Rattus norvegicus, UniProt Q02293+Q04631)
T1 construct: The enzyme can be purified according to Cell, 62: 81-88 (1990), utilizing steps one, two, and three; from tissue; host or cells: rat brain
Assay: Inhibition of farnesyltransferase (3H-farnesyldiphosphate / H-Ras filter assay)
Format: biochemical
Settings: 3H-farnesyldiphosphate 0.6 μM, H-Ras 5.0 μM, 37° C., 30 minutes
Description: The ability of the compounds of the present invention to inhibit farnesyltransferase can be measured according to the method described in J. Biol. Chem., 266: 14603 (1991) or J. Biol. Chem., 270:660-664 (1995). Procedures for determination of the inhibition of farnesylation of the oncogene protein Ras are described in J. Biol. Chem., 266:15575-15578 (1991) and U.S. Pat. No. 5,245,061. Inhibition of rat brain farnesyltransferase can also be measured in vitro using an Amersham Life Science commercial scintillation proximity assay kit and substituting a biotin-K Ras B fragment (0.1 μM final concentration) for the biotin-lamin substrate provided by Amersham. The enzyme can be purified according to Cell, 62: 81-88 (1990), utilizing steps one, two, and three. […] The percent inhibition of the farnesylation caused by the compounds of the present invention (at 10^−6 M) compared to an uninhibited control sample can be evaluated in the same Amersham test system.
The mixture was brought to 37° C., treated with enzyme, incubated for 30 minutes, treated with 1 M HCl/ethanol (1 mL) to stop the reaction, stirred for 15 minutes at room temperature, diluted with ethanol (2 mL), filtered through a 2.5 cm glass microfiber filter (Whatman) with ethanol rinses (4×2 mL). The glass transferred to a scintillation vial and treated with scintillation fluid (5 mL). The radioisotope retained on the glass fiber filter was counted and reflected the activity of the enzyme.

[1] = test compound at 10^−9 M (stated in the cell)

T1 sequence (Q02293 whole entry, one chain of several): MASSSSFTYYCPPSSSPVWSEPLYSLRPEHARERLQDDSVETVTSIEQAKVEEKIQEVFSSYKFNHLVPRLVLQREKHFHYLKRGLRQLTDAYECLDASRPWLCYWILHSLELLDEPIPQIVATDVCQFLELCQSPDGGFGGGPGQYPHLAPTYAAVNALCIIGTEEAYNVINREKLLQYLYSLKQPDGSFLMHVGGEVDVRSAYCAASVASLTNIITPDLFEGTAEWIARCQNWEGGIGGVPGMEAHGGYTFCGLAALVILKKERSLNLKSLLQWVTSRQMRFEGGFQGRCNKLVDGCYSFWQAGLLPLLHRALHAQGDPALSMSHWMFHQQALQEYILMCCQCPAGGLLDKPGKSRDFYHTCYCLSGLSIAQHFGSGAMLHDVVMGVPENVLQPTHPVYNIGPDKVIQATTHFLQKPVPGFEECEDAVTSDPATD

| inhibition at 0.1 µM (test compound at 10^−7 M) | inhibition at 0.01 µM (test compound at 10^−8 M) | Compound | also measured |
| --- | --- | --- | --- |
| 73% |  | Cn1cncc1C(OCc1ccc(Cl)cc1I)c1ccc(C#N)cc1 (stereo not drawn) [Example 1, 4-(((4-chloro-2-iodobenzyl)oxy)(1-methyl-1H-imidazol-5-yl)methyl)benzonitrile] |  |
| 84% |  | Cn1cncc1C(OCc1ccc(Cl)cc1-c1cccc(N)c1)c1ccc(C#N)cc1 (stereo not drawn) [Example 13, 4-(((3′-amino-5-chloro(1,1′-biphenyl)-2-yl)methoxy)(1-methyl-1H-imidazol-5-yl)methyl)benzonitrile] |  |
|  | 94% | Cn1cncc1C(O)(COc1ccc(C#N)cc1-c1cc(F)cc(F)c1)c1ccc(C#N)cc1 (stereo not drawn) [Example 67, 6-(2-(4-cyanophenyl)-2-hydroxy-2-(1-methyl-1H-imidazol-5-yl)ethoxy)-3′,5′-difluoro-1,1′-biphenyl-3-carbonitrile] |  |
|  | 97% | Cn1cncc1C(O)(COc1ccc(C#N)cc1-c1ccc(Cl)c(Cl)c1)c1ccc(C#N)cc1 (stereo not drawn) [Example 71, 3′,4′-dichloro-6-(2-(4-cyanophenyl)-2-hydroxy-2-(1-methyl-1H-imidazol-5-yl)ethoxy)-1,1′-biphenyl-3-carbonitrile] |  |
|  | 97% | Cn1cncc1C(F)(COc1ccc(C#N)cc1-c1ccc2c(c1)OCO2)c1ccc(C#N)cc1 (stereo not drawn) [Example 56, 3-(1,3-benzodioxol-5-yl)-4-(2-(4-cyanophenyl)-2-fluoro-2-(1-methyl-1H-imidazol-5-yl)ethoxy)benzonitrile] |  |
| 100% |  | Cc1ccc(S(=O)(=O)Nc2cc(C#N)ccc2COC(c2ccc(C#N)cc2)c2cncn2C)cc1 (stereo not drawn) [Example 47, N-(5-cyano-2-(((4-cyanophenyl)(1-methyl-1H-imidazol-5-yl)methoxy)methyl)phenyl)-4-methylbenzenesulfonamide] |  |
|  | 77% | CCCn1cc(-c2cc(C#N)ccc2COC(c2ccc(C#N)cc2)c2cncn2C)ccc1=O (stereo not drawn) [Example 91, 4-(((4-cyanophenyl)(1-methyl-1H-imidazol-5-yl)methoxy)methyl)-3-(6-oxo-1-propyl-1,6-dihydropyridin-3-yl)benzonitrile] |  |
|  | 65% | COc1cccc(-c2cc(C#N)ccc2N(C)CC(F)(c2ccc(C#N)cc2)c2cncn2C)c1 (stereo not drawn) [Example 85, 6-((2-(4-cyanophenyl)-2-fluoro-2-(1-methyl-1H-imidazol-5-yl)ethyl)(methyl)amino)-3′-methoxy-1,1′-biphenyl-3-carbonitrile] |  |
|  | 98% | Cn1cncc1C(O)(COc1ccc(C#N)cc1-c1cccc(Cl)c1)c1ccc(C#N)cc1 (stereo not drawn) [Example 77, 3′-chloro-6-(2-(4-cyanophenyl)-2-hydroxy-2-(1-methyl-1H-imidazol-5-yl)ethoxy)-1,1′-biphenyl-3-carbonitrile] |  |
| 92% |  | Cn1cncc1C(OCc1ccc(Cl)cc1-c1cccc(C=O)c1)c1ccc(C#N)cc1 (stereo not drawn) [Example 30, 4-(((5-chloro-3′-formyl(1,1′-biphenyl)-2-yl)methoxy)(1-methyl-1H-imidazol-5-yl)methyl)benzonitrile] |  |
| 100% |  | Cn1cncc1C(OCc1ccc(C#N)cc1NS(=O)(=O)c1cccs1)c1ccc(C#N)cc1 (stereo not drawn) [Example 46, N-(5-cyano-2-(((4-cyanophenyl)(1-methyl-1H-imidazol-5-yl)methoxy)methyl)phenyl)-2-thiophenesulfonamide] |  |
| > 83% |  | CC(=O)c1ccc(-c2cc(Cl)ccc2COC(c2ccc(C#N)cc2)c2cncn2C)cc1 (stereo not drawn) [Example 16, 4-(((4′-acetyl-5-chloro(1,1′-biphenyl)-2-yl)methoxy)(1-methyl-1H-imidazol-5-yl)methyl)benzonitrile] |  |
| 97% |  | Cn1cncc1C(OCc1ccc(Cl)cc1-c1ccc(C(C)(C)C)cc1)c1ccc(C#N)cc1 (stereo not drawn) [Example 18, 4-(((4′-tert-butyl-5-chloro(1,1′-biphenyl)-2-yl)methoxy)(1-methyl-1H-imidazol-5-yl)methyl)benzonitrile] |  |
| > 91% |  | COc1cccc(-c2cc(Cl)ccc2COC(c2ccc(C#N)cc2)c2cncn2C)c1 (stereo not drawn) [Example 9, 4-(((5-chloro-3′-methoxy(1,1′-biphenyl)-2-yl)methoxy)(1-methyl-1H-imidazol-5-yl)methyl)benzonitrile] |  |
| 100% |  | Cn1cncc1C(OCc1c(-c2cccc(Cl)c2)cc(C#N)c(=O)n1C)c1ccc(C#N)cc1F (stereo not drawn) [Example 53, 5-(3-chlorophenyl)-6-(((4-cyano-2-fluorophenyl)(1-methyl-1H-imidazol-5-yl)methoxy)methyl)-1-methyl-2-oxo-1,2-dihydro-3-pyridinecarbonitrile] |  |
| > 98% |  | CCOc1cccc(-c2cc(C#N)ccc2COC(c2ccc(C#N)cc2)c2cncn2C)c1 (stereo not drawn) [Example 32, 6-(((4-cyanophenyl)(1-methyl-1H-imidazol-5-yl)methoxy)methyl)-3′-ethoxy(1,1′-biphenyl)-3-carbonitrile] |  |
|  |  | 4-(((5-chloro-4′-(trifluoromethyl)(1,1′-biphenyl)-2-yl)methoxy)(1-methyl-1H-imidazol-5-yl)methyl)benzonitrile [Example 26] | % Inhibition at 10^−7 M (test compound at 10^−7 M): 98% |
| 89% |  | Cn1cncc1C(OCc1c[nH]c(=O)cc1-c1cccc(Cl)c1)c1ccc(C#N)cc1 (stereo not drawn) [Example 44, 4-(((4-(3-chlorophenyl)-6-oxo-1,6-dihydro-3-pyridinyl)methoxy)(1-methyl-1H-imidazol-5-yl)methyl)benzonitrile] |  |
|  | 94% | CN(CC(O)(c1ccc(C#N)cc1)c1cncn1C)c1ccc(C#N)cc1-c1ccc(OC(F)(F)F)cc1 (stereo not drawn) [Example 86, 6-((2-(4-cyanophenyl)-2-hydroxy-2-(1-methyl-1H-imidazol-5-yl)ethyl)(methyl)amino)-4′-(trifluoromethoxy)-1,1′-biphenyl-3-carbonitrile] |  |
|  |  | Cn1cncc1C(O)(COc1ccc(C#N)cc1-c1ccc(OC(F)(F)F)cc1)c1ccc(C#N)cc1 (stereo not drawn) [Example 63, 6-(2-(4-cyanophenyl)-2-hydroxy-2-(1-methyl-1H-imidazol-5-yl)ethoxy)-4′-(trifluoromethoxy)-1,1′-biphenyl-3-carbonitrile] | % Inhibition at 10^−8 M (test compound at 10^−8 M): 97% |
|  | 83% | Cn1cncc1C(O)(COc1ccc(C#N)cc1-c1cccc2cccnc12)c1ccc(C#N)cc1 (stereo not drawn) [Example 59, 4-(2-(4-cyanophenyl)-2-hydroxy-2-(1-methyl-1H-imidazol-5-yl)ethoxy)-3-quinolin-8-ylbenzonitrile] |  |
|  |  | Cn1cncc1C(OCc1ccc(C#N)nc1-c1ccc2c(c1)OC(F)(F)O2)c1ccc(C#N)cc1 (stereo not drawn) [Example 89, 5-(((4-cyanophenyl)(1-methyl-1H-imidazol-5-yl)methoxy)methyl)-6-(2,2-difluoro-1,3-benzodioxol-5-yl)pyridine-2-carbonitrile] | inhibition at 0.001 µM [1]: 75% |
| 87% |  | Cn1cncc1C(OCc1cc(=O)c(C#N)cn1-c1cccc(Cl)c1)c1ccc(C#N)cc1 (stereo not drawn) [Example 42, 1-(3-chlorophenyl)-6-(((4-cyanophenyl)(1-methyl-1H-imidazol-5-yl)methoxy)methyl)-4-oxo-1,4-dihydro-3-pyridinecarbonitrile] |  |
|  |  | Cn1cncc1[C@](O)(COc1ccc(C#N)cc1-c1ccc(OC(F)(F)F)cc1)c1ccc(C#N)cc1 (single isomer, unassigned) [Example 93] | % Inhibition at 10^−9 M [1]: 90 (10^−9M) % |
|  | 90% | Cn1cncc1C(F)(COc1ccc(C#N)cc1-c1ccc(OC(F)(F)F)cc1)c1ccc(C#N)cc1 (stereo not drawn) [Example 64, 6-(2-(4-cyanophenyl)-2-fluoro-2-(1-methyl-1H-imidazol-5-yl)ethoxy)-4′-(trifluoromethoxy)-1,1′-biphenyl-3-carbonitrile] |  |
|  | 15% | N#Cc1ccc(C(O)(COc2ccc(C#N)cc2-c2ccc(OC(F)(F)F)cc2)c2cncs2)cc1 (stereo not drawn) [Example 82, 6-(2-(4-cyanophenyl)-2-hydroxy-2-(1,3-thiazol-5-yl)ethoxy)-4′-(trifluoromethoxy)-1,1′-biphenyl-3-carbonitrile] |  |
|  | 91% | Cc1ccnc(NC(=O)c2cc(C#N)ccc2COC(c2ccc(C#N)cc2)c2cncn2C)c1 (stereo not drawn) [Example 87, 5-cyano-2-(((4-cyanophenyl)(1-methyl-1H-imidazol-5-yl)methoxy)methyl)-N-(4-methylpyridin-2-yl)benzamide] |  |
| 96% |  | Cn1cncc1C(OCc1ccc(Cl)cc1-c1cccc(C#N)c1)c1ccc(C#N)cc1 (stereo not drawn) [Example 14, 3′-chloro-6′-(((4-cyanophenyl)(1-methyl-1H-imidazol-5-yl)methoxy)methyl)(1,1′-biphenyl)-3-carbonitrile] |  |
| > 91% |  | Cn1cncc1C(OCc1ccc(Cl)cc1-c1cccc(Cl)c1)c1ccc(C#N)cc1 (stereo not drawn) [Example 6, 4-(((3′,5-dichloro(1,1′-biphenyl)-2-yl)methoxy)(1-methyl-1H-imidazol-5-yl)methyl)benzonitrile] |  |
| 10% |  | Cn1cncc1C(NC(=O)c1cn(C)c(=O)cc1-c1cccc(Cl)c1)c1ccc(C#N)cc1 (stereo not drawn) [Example 41, 4-(3-chlorophenyl)-N-((4-cyanophenyl)(1-methyl-1H-imidazol-5-yl)methyl)-1-methyl-6-oxo-1,6-dihydro-3-pyridinecarboxamide] |  |
